Each structure is given as a SMILES string. “Also recorded” adds a separate entry of the source.

A short description of data set [1]: Photostability: light exposure of tablets in Petri dish (ICH Q1B), impurities by HPLC. The class given is physicochemical. On the procedure:
Uncoated tablets, 0.5, 1 and 2 mg were exposed to ICH Photostability conditions and tested to provide baseline impurity information for comparison.

Data set [2] in a line: Solubility of Compound B compared with Compound A. The class given is physicochemical. The source says: Experiments were undertaken to determine the acceptable level of the desolvated Compound B in a pharmaceutical dosage form and the appropriate formulation techniques.

As to `CC(=O)Nc1cccc(-n2c(=O)n(C3CC3)c(=O)c3c(Nc4ccc(I)cc4F)n(C)c(=O)c(C)c32)c1` [Compound A, N-{3-[3-cyclopropyl-5-(2-fluoro-4-iodo-phenylamino)-6,8-dimethyl-2,4,7-trioxo-3,4,6,7-tetrahydro-2H-pyrido[4,3-d]pyrimidin-1-yl]phenyl}acetamide dimethyl sulfoxide solvate], the photo-stability result in data set [1] is “sensitive to photo-induced degradation”.
As to `CC(=O)Nc1cccc(-n2c(=O)n(C3CC3)c(=O)c3c(Nc4ccc(I)cc4F)n(C)c(=O)c(C)c32)c1` [Compound B, N-{3-[3-cyclopropyl-5-(2-fluoro-4-iodo-phenylamino)-6,8-dimethyl-2,4,7-trioxo-3,4,6,7-tetrahydro-2H-pyrido[4,3-d]pyrimidin-1-yl]phenyl}acetamide], the “solubility compared with Compound A” value in data set [2] was “significantly less soluble; also recorded: much less soluble”.

These data come from US20130266649A1, “NOVEL PHARMACEUTICAL COMPOSITION” (priority 2010, published 2013).
